Results from PMC8546421, “Molecular modelling of the FOXO4-TP53 interaction to design senolytic peptides for the elimination of senescent cancer cells” (EBioMedicine, 2021).
Where no end group is shown, it is not given here. [ ]: non-standard residue; d: D form.

Key:
dividing A375 cells = experiment: Peptide efficacy in culture (MTS), dividing cells; type: cell-based, human; conditions: for IC50: peptide replenished daily for two days, MTS, best fit polynomial, read-out: IC50^div, concentration to kill 50% of dividing cells
Protocol: (§1) Cell lines were treated with chemotherapy, doxorubicin (Sigma, Cat. No. 2252) to induce senescence (200 nM for HCT116, 100 nM for B16-F10 and MCF7, 50 nM for SW480 and DLD-1, 40 nM for A375-Luc/iRFP and MCF10a). MCF7 cells were treated with CDK4/6 inhibitor, palbociclib (Selleck Chemicals: S1116) to induce senescence (5 µM). A375 cells were treated with Braf inhibitor, Dabrafenib (Selleck Chemicals: S2807), to induce senescence (10 µM). Peptide efficacy experiments were performed by seeding 10,000 – 20,000 cells in a 96-well plate. The cells were given doxorubicin twice to make the cells senescent. After removal of doxorubicin, the plate was treated with varying concentrations of peptide. The peptide was replenished daily for two days. Cellular proliferation was quantified using the Promega CellTiter 96™ AQueous One Solution Cell Proliferation Assay (MTS) after 2 hours according to the manufacturer's protocol (Promega, G3581). To control for the charge of ES2, ProteoJuice (Millipore Sigma, 71281) was used to deliver ES2 using the manufacturers protocol, except 50 µL of 2 mM ES2 was mixed with 25 µL of ProteoJuice. Varying concentrations of the mixture were administered to A375 cells along with a control of only ProteoJuice.

senescent A375 cells = experiment: Peptide efficacy in culture (MTS), senescent cells; type: cell-based, human; conditions: for IC50: doxorubicin (40 nM)-induced senescent A375 cells, peptide replenished daily for two days, MTS, best fit polynomial, read-out: IC50^sen, concentration to kill 50% of senescent cells; for senolytic activity (in words): senescent vs dividing A375 cells
Protocol: as §1

[1] = tested on: senescent A375 human melanoma cells; experiment: Orthotopic xenograft of senescent luciferase A375 cells in mouse ears; type: in vivo; conditions: NSG mouse ears, local injection 50 µL of 5 mg/mL once daily for two days, imaged 24 hours after second treatment; ANOVA p<0.01
From the text: (§2) Mice were aged between 3-8 months and 20-30 g in weight and were housed in specific pathogen free cages. Animals were randomly distributed among treatment groups by assigning mice within the same cage to different treatment regimens. To minimise confounders, mouse treatment order was randomised within each cage. Male and female mice were distributed between all treatment groups since the chemicals used were directly injected and are not metabolized. Researchers were not blinded to the group allocation, but all attempts were made to analyse the data without knowing treatment conditions. NOD.Cg-Prkdcscid Il2rgtm1Wjl/SzJ (NSG) were purchased from The Jackson Laboratory (IMSR Cat# JAX:005557, RRID:IMSR_JAX:005557). NOD.Cg-KitW-41J Tyr + Prkdcscid Il2rgtm1Wjl/ThomJ (NBSGW) were purchased from The Jackson Laboratory (IMSR Cat# JAX:026622, RRID:IMSR_JAX:026622). Immunocompromised mice used for these experiments were all in the NSG background; however, some mice were F1 generation of NSG x NBSGW, thus the brown coat colour as NBSGW mice have tyrosinase. Xenografts containing senescent cells were established by injecting A375-Luc/iRFP human melanoma cells which contained a luciferase expressing gene into immunocompromised NSG ears. Senescence was induced in the cells via doxorubicin treatment (40 nM) then resuspended in DMEM prior to injection. Each ear was then injected with 50 µL containing approximately 1,000,000 cells. The ears were treated once daily for two days with 50 µL of either 5 mg/mL peptide, or saline. To control for confounders, each mouse contained one ear treated with saline (control). For imaging, mice were injected with 3 mg luciferin intravenously and imaged before and after treatment. Transgenic mice (BrafCA, PtenloxP, Tyr::CreERT2) were purchased from The Jackson Laboratory (IMSR Cat# JAX:013590, RRID:IMSR_JAX:013590). These mice were maintained on a C57Bl6 background and all experimental mice contained Tyr::CreER with either Braf^CA/+, Pten^fx/+; Braf^CA/CA, Pten^fx/+, or Braf^CA/+, Pten^fx/fx. […] Hypopigmented melanomas sporadically formed over the next 3-5 months, typically on the back of the mouse. These melanomas were then directly injected with 100 µL of either 20 mg/mL ES2+10%DMSO, saline+10%DMSO, saline+10%Dabrafenib, or 20 mg/mL ES2+10%Dabrafenib. The researchers were not blinded to the experiment, but each mouse contained an internal control and all imaging was done with the same exposure times based upon control tissue. For survival analyses, either 750,000 or 25,000 A375-Luc/iRFP cells were injected intradermally into NSG mice. Different combinations of drugs were locally injected to the region once daily for two days with 50 µL of either 5 mg/mL ES2, 10%Dabrafenib, or 5mg/mL ES2+10%Dabrafenib. Dabrafenib was made at 100 mg/mL in DMSO. Mice were then monitored daily and allowed to age until a humane endpoint was reached according to our IACUC protocol, which in this case was tumours of 2 cm in size. Aged C57Bl6 male mice were purchased from the Jackson Laboratory (IMSR Car# JAX:000664, RRID:IMSR_JAX:000664) at 72 weeks of age and were started on the experiment at 82 weeks. Mice were treated with 3 mg of ES2 via tail vein injection weekly for three weeks and weighed weekly. Blood was drawn prior to beginning experiments and at the endpoint. To generate plasma, blood was centrifuged at 1,500g for 10 minutes, then 2,500g for 10 minutes, then frozen for later analyses. […]

[2] = tested on: Braf/Pten sporadic melanomas; experiment: TUNEL staining of melanomas in transgenic mice; type: in vivo, mouse; conditions: intratumoural injection daily over two days, single agents vs saline
Protocol: Fixed frozen sections of melanomas were stained with the Click-IT Plus TUNEL assay (ThermoFisher C10618) according to the manufacturer's protocol. Stained sections were imaged with a Zeiss A2 upright microscope at either 20x or 10x. At least one of each treatment group were stained and imaged at the same time. All sections from each staining group were set to the same exposure time for TUNEL and DAPI. Any normalization of background levels was performed in Adobe Photoshop and set to the same scale for the entire image and for all other images.

[3] = tested on: Braf/Pten sporadic melanomas; experiment: SA-β-gal staining of melanomas in transgenic mice; type: in vivo, mouse
Protocol: Senescent and dividing cells or tissue sections were fixed with 4% formaldehyde. The cells were washed with PBS twice before staining with X-gal solution [1 mg/mL 5-bromo-4-chloro-3inolyl-β-D-galactoside (Boehringer Manneheim #745-740) in N,N-dimethylformamide, 5 mM potassium ferricyanide crystalline (#P-8131), 5 mM potassium […] (#P-3289), 2 mM magnesium chloride, and 1x PBS, pH 6.0. Cells or tissue sections were incubated at 37°C for 24 hours. After staining, cells were washed with PBS before being counted and imaged on the Leica Dmi8 microscope.
Mice were aged between 3-8 months and 20-30 g in weight and were housed in specific pathogen free cages. Animals were randomly distributed among treatment groups by assigning mice within the same cage to different treatment regimens. To minimise confounders, mouse treatment order was randomised within each cage. Male and female mice were distributed between all treatment groups since the chemicals used were directly injected and are not metabolized. Researchers were not blinded to the group allocation, but all attempts were made to analyse the data without knowing treatment conditions. […] Mice were then monitored daily and allowed to age until a humane endpoint was reached according to our IACUC protocol, which in this case was tumours of 2 cm in size. […]

[4] = tested on: dividing A375 human melanoma cells; experiment: Survival study, orthotopic A375 xenograft; type: in vivo, mouse; conditions: local injection once daily for two days
From the text: as §2, with “Different combinations of drugs were locally injected to the region once daily for two days with 50 µL of either 5 mg/mL ES2, 10%Dabrafenib, or 5mg/mL ES2+10%Dabrafenib. Dabrafenib was made at 100 mg/mL in DMSO.” left out, “size.” for “size. Aged C57Bl6 male mice were purchased from the Jackson Laboratory (IMSR Car# JAX:000664, RRID:IMSR_JAX:000664) at 72 weeks of age and were started on the experiment at 82 weeks. Mice were treated with 3 mg of ES2 via tail vein injection weekly for three weeks and weighed weekly. Blood was drawn prior to beginning experiments and at the endpoint. To generate plasma, blood was centrifuged at 1,500g for 10 minutes, then 2,500g for 10 minutes, then frozen for later analyses.”

Molecule: PRKGGSRRRAWGRRRYRRRLRRRLRRAPRKRLTLA [ES2r2]
- IC50 (dividing A375 cells): > 20 µM
- IC50 (senescent A375 cells): ~9 µM
- senolytic activity (in words) (senescent A375 cells): slightly lower senolytic activity
- luciferase signal compared to E1 and saline [1]: statistically significantly reduced luciferase signal

Molecule: CC(C)(C)c1nc(-c2cccc(NS(=O)(=O)c3c(F)cccc3F)c2F)c(-c2ccnc(N)n2)s1 [Dabrafenib]
- effect on apoptosis (TUNEL), in words [2]: no effect on apoptosis
- effect on apoptosis (TUNEL), in words ([2]; listed as Dab): no difference
- increase of fraction of SA-β-gal+ cells within the melanoma over saline ([3]; Dabrafenib n=8, saline n=5, p<0.001): 11 fold
- senescence of the melanoma compared to vehicle, in words ([3]; intratumoural injection daily over two days): strongly induced senescence
- effect on survival time, in words ([4]; 25,000 A375 cells): no effect on survival time
- effect on survival time, in words ([4]; 750,000 A375 cells): did not alter survival times

Molecule: YGRKKRRQRRRYGRKKRRQRRRYGRKKRRQRRR [ES1]
- IC50 (dividing A375 cells): ~19 µM
- IC50 (senescent A375 cells): ~4 µM
- senolytic activity (in words) (senescent A375 cells): highest senolytic activity
- luciferase signal compared to E1 and saline [1]: statistically significantly reduced luciferase signal

Molecule: PRKGGRRRRAWGRRRRRRRLRRRLRRAPRKRLTLA [ES2r1]
- IC50 (dividing A375 cells): ~13 µM
- IC50 (senescent A375 cells): ~6 µM
- senolytic activity (in words) (senescent A375 cells): highest senolytic activity
- luciferase signal compared to E1 and saline [1]: statistically significantly reduced luciferase signal

Molecule: H-GRKKRRQRRRPPPRKGGSRRRAWGNQRYARLIRQAIESAPEKRLTLA-OH [E1]
- senolytic activity (in words) (senescent A375 cells): negligible senolytic activity

Molecule: [dL][dT][dL][dR][dK][dE][dP][dA][dS][dE][dI][dA][dQ][dS][dI][dL][dE][dA][dY][dS][dQ][dN]G[dW][dA][dN][dR][dR][dS]GG[dK][dR][dP][dP][dP][dR][dR][dR][dQ][dR][dR][dK][dK][dR]G [FOXO4-DRI, reference compound]
- lytic activity in dividing cells (in words) (dividing A375 cells): minimal lytic activity in dividing cells
- luciferase signal compared to E1 and saline [1]: statistically significantly reduced luciferase signal
